From patent US20260259231A1, “METHODS AND DEVICES FOR DETECTION OF COAGULATION IMPAIRMENT” (Coagulo Medical Technologies, Inc., priority 2021, published 2026)
Read-outs that look alike come from different tables or passages of the source.

What was measured:
[1] = tested on: coagulation cascade (FXa, FIIa, FXI inhibition); assay: Clotting time of inhibitor-spiked blood samples on addition of buffer, FXa or FIIa (FIG. 33B); conditions: for clotting time, control condition: no exogenous factor added, contact activation pathway activator; for clotting time upon addition of exogenous FIIa: two concentrations of FIIa; for clotting time upon addition of exogenous FXa: two concentrations of FXa
Method: The control condition (where no exogenous factor is added) utilizes an activator of the contact activation pathway to activate FXII to FXIIa. FIG. 33B is a bar graph showing the clotting time responses to the addition of buffer (control), two concentrations of FXa, and two concentrations of FIIa. […] The amount of exogenous FIIa added to the sample was inadequate to overcome all of the FIIa inhibition present in the sample. In these examples in FIG. 33B, when a sample's clotting time normalizes to the negative control clotting time, such a result is also described as an “unaffected” clotting time in the figures depicting the pathways.

[2] = target: FXI (Homo sapiens, UniProt P03951); assay: Clotting time of inhibitor-spiked whole blood samples on addition of exogenous FXI (FIG. 33A, 33C); conditions: FIG. 33C; FXI inhibitor at Conc 1<Conc 2<Conc 3
Method: FIG. 33A provides representative clotting-curves of whole blood samples spiked with a concentration of FXI inhibitor (inh) (Conc 1<Conc 2<Conc 3); no inhibitor was added to the negative control. The curves show the samples' respective changes in clotting time as a response to the addition of increasing concentrations of exogenous FXI.
FIG. 33C reports the effect of the addition of exogenous FXI on the clotting time of various samples. In this example, the negative control, containing no inhibitor, has an unaffected clotting time with the addition of FXI.

[3] = PT and INR of patients on FXa-I versus controls; type: in vivo, human; conditions: patients documented to be on FXa-I; significance p<0.05
Excerpt: FIGS. 18A-18C illustrate prothrombin time (PT) and international normalized ratio (INR) is sensitive but not specific for FXa-I anticoagulation. Both PT and INR were compared between control patients and patients documented to be on FXa-I. Abnormal PT was defined as >14 seconds and abnormal INR was defined as >1.2. […] One-way ANOVA was used to compare normal and abnormal controls with both rivaroxaban and apixaban. Significance was defined as p<0.05.

[4] = target: Factor Xa (FXa) (Homo sapiens, UniProt P00742); assay: Microfluidic clotting-curve assay, plasma spiked with FXa inhibitor, FXa agonist gradient; type: biochemical
Excerpt: (§1) A general protocol for performing the assay according to an embodiment of the invention is as follows: • a) Add together sample, agonist, +/−calcium, +/−clot detection agent • i. Calcium to a final concentration between 0.005-0.05 M (This concentration is particularly suitable for use with 3.2% buffered sodium citrate. If another anticoagulant is used, the concentration of calcium may not be 0.02 M.) • ii. Clot detection agents can include fluorescent labeled fibrinogen, magnets, beads (may be fluorescent or colored) • b) Load into microfluidic device • i. See, e.g., FIGS. 1A-1D, 2A and 2B for examples of input loading configuration and order • c) Temperature control • i. Room temperature • ii. May increase up to 37° C.
(§2) In an example, the process of clot detection can include the following procedural steps: • a) A plasma sample is pre-mixed to include: 6 μL plasma+0.6 μL agonist (10% volume to sample)+0.6 μL Calcium (stock 200 mM, 10% volume to sample)+0.6 μL Fibrinogen (this can vary in concentration, in general <10% volume of sample).
(§3) The time it takes for each of the combinations to form a clot is then plotted. […] Concentration of the agonist (FXa for FIGS. 7A-7C, and FIIa for FIG. 7D) is plotted on the X-axis for each of the figures. The units on the X-axis “ng/mL” refer to ng×10^3/mL.

[5] = target: T1, FXa (Homo sapiens, UniProt P00742); assay: Clotting curves of citrated plasma from emergency department patients on FXa-I; type: in vivo; conditions: patient plasma samples
T1 construct: Citrated plasma samples were collected from patients; from tissue; host or cells: citrated plasma of patients
Method: Citrated plasma samples were collected from patients admitted into the Massachusetts General Hospital Emergency Department. All plasma samples had clinician-ordered coagulation tests (PT/INR, aPTT, DTT, or other). Patient samples were evaluated using an embodiment of the assay described herein. Patient medical records were reviewed for the administration of history of anticoagulants.
Clotting times were compared at various agonist concentrations for all the patient groups to construct clotting curves.

[6] = target: FIIa (Homo sapiens, UniProt P00734)
Excerpt: as §1, §2, §3

[7] = target: Factor IX (Homo sapiens, UniProt P00740); assay: Clotting curve, Factor IX added to FIX-deficient plasma or plasma with anti-Factor IX antibodies (FIG. 26); type: biochemical
Excerpt: It should be understood that the use of exogenous factor addition to a plasma sample may not be able to differentiate between deficiency and low quantities of inhibitors, for example, if the concentration of the inhibitor is low enough such that a physiological level of the factor is able to overcome the functional inhibition resulting in a normalized clotting time. Additionally, the inhibitor detected using the clotting time approach is a functional inhibitor such that the inhibitor decreases the factor's ability to propagate a blood clot.

[8] = tested on: contact activation pathway (intrinsic pathway); assay: Clotting times of control and factor-deficient plasmas with exogenous coagulation factors (FIG. 25); type: biochemical
Excerpt: FIG. 25 is a table providing representative clotting times (minutes:seconds) for various plasma samples in the presence of exogenous coagulation factors. […] The clotting time for the control plasma, with no exogenous factor added (negative control), represents the clotting time based on activation of the contact activation pathway (intrinsic pathway); this clotting time can be designated as normal clotting time. […] The clotting time of the FVIII-deficient plasma decreases with the addition of FVIII or FIXa. […] The clotting time of FIX-deficient plasma decreases with the addition of exogenous FIX or FIXa. In all plasma samples, exogenous FXa is used as a positive control to confirm the ability of the plasma sample to clot. FIIa can also be used for this purpose.

[9] = tested on: Factors IIa and Xa; assay: Whole blood clot detection in parallel microfluidic channels pre-coated with FXa; conditions: whole blood with unfractionated heparin, 10 minutes
Method: FIGS. 4A and 4B are fluorescent images illustrating clot detection using whole blood in a parallel microfluidic channel device 410 according to an example embodiment. Microfluidic channels 420 were pre-coated with agonist, Factor Xa, at various concentrations (7.5 ng/ml, 75 ng/ml, 750 ng/ml; units “ng/mL” refer to ng×10^3/mL) or with buffer alone (negative control). The fluorescent images are taken at one time point (10 minutes). Microfluidic channels were washed with buffer prior to use to leave only bound FXa within the microfluidic channel. Fresh whole blood was placed into each input port and the blood was drawn in through capillary action. The blood was left to flow for 10 minutes and then the channel was gently washed with buffer. Depicted is a brightfield image of two samples evaluated. […] Unfractionated heparin inhibits Factors IIa and Xa in an antithrombin III-dependent fashion, which is why the addition of these factors at appropriate concentrations can help recover the clotting capability of the sample.

Factor Xa (FXa), sequence (P00742 235-488 limits assumed): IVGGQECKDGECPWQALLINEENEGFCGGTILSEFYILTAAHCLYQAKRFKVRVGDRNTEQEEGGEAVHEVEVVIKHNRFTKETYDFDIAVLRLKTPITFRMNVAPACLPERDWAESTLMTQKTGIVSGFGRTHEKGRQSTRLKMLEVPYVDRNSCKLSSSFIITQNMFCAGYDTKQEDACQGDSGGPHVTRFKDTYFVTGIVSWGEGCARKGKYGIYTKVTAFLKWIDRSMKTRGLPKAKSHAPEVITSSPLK
Factor Xa (FXa), sequence (P00742 41-179 partner limits assumed): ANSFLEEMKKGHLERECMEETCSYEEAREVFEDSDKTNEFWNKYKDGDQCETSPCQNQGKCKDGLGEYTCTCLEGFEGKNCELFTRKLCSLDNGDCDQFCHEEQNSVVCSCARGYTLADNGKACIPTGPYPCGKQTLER
Factor IX, sequence (P00740 29-461 limits assumed): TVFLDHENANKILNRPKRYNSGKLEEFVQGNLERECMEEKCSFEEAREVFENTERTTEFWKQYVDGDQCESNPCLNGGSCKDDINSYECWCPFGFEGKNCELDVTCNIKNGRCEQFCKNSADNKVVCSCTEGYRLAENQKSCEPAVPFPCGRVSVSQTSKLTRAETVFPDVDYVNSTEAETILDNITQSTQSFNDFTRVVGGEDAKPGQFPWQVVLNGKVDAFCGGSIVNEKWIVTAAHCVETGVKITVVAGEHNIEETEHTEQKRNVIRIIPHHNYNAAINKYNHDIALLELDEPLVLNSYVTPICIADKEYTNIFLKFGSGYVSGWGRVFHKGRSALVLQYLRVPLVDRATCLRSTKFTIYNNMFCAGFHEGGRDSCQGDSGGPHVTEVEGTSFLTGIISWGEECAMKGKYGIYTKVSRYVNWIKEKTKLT
FXI, sequence (P03951 19-625, species assumed): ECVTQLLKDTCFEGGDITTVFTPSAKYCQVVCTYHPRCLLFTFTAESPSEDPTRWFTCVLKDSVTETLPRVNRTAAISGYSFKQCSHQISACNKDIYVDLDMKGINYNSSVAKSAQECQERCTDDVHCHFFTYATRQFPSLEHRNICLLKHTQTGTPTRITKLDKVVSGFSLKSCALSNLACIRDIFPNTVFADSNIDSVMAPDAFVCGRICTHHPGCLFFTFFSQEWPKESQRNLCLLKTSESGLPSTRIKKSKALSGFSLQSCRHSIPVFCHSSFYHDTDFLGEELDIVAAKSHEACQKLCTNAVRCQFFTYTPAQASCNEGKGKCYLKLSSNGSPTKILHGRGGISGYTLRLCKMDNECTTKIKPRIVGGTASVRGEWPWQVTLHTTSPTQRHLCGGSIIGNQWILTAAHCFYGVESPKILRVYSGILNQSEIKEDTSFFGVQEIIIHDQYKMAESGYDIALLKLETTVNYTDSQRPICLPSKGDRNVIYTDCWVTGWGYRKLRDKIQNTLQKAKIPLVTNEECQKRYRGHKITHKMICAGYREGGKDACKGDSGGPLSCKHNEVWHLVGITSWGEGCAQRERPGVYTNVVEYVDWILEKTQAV
T1 sequence (P00742 235-488 limits assumed): as the sequence (P00742 235-488 limits assumed) above
T1 sequence (P00742 41-179 partner limits assumed): as the sequence (P00742 41-179 partner limits assumed) above

Molecule | clotting time, control condition [1] | clotting time upon addition of exogenous FIIa [1] | clotting time upon addition of exogenous FXa [1] | PT and INR compared to abnormal controls (one-way ANOVA) [3] | clotting time upon addition of exogenous factor ([8]; FIX-deficient plasma) | clotting time upon addition of exogenous factor ([8]; FVIII-deficient plasma) | clotting time upon addition of exogenous factor ([8]; FXI-deficient plasma) | clotting time upon addition of exogenous factor ([8]; control (normal) plasma) | other results
COc1ccc(-n2nc(C(N)=O)c3c2C(=O)N(c2ccc(N4CCCCC4=O)cc2)CC3)cc1 [Apixaban] | prolongation of clotting time | shortened and normalized clotting time | concentration-dependent clotting-time response | no significance |  |  |  |  | clotting time with addition of exogenous FXI [2]: prolongation in clotting time
O=C(NC[C@H]1CN(c2ccc(N3CCOCC3=O)cc2)C(=O)O1)c1ccc(Cl)s1 [Rivaroxaban] |  |  |  | no significance |  |  |  |  | clot formation time versus negative control ([4]; 250 ng/mL Rivaroxaban, FXa agonist down to 375 ng×10^3/mL): significantly longer than the negative control but lower than 500 ng/mL; agonist (FXa) concentration down to which clot formation detected in <[…] ([4]; 500 ng/ml Rivaroxaban): 750 ng×10^3/mL; clot formation detection time ([4]; 500 ng/ml Rivaroxaban, FXa agonist down to 750 ng×10^3/mL): < 2.5 min; clotting times at various agonist concentrations, patient group versus control group [5]: very different from the control group
Dabigatran | prolongation of clotting time | concentration-dependent change in clotting time | relatively small concentration-dependent change in clotting time |  |  |  |  |  | clot formation detection time ([6]; 250 ng/mL Dabigatran, FIIa agonist down to 710 ng×10^3/mL): < 2.5 min; clot formation detection time ([6]; 500 ng/ml Dabigatran, FIIa agonist down to 710 ng×10^3/mL): < 2.5 min; clot formation detection time ([6]; <25 ng/ml Dabigatran, FIIa agonist down to 71 ng×10^3/mL): < 2.5 min
FIX: exogenous coagulation Factor IX, inactive form |  |  |  |  | decreases | prolonged clotting time | prolonged clotting time | slight decrease in clotting time | concentration of added factor needed for normal clotting time ([7]; Factor IX-deficient plasma): requires a physiological concentration of replacement factor; concentration of added factor needed to decrease clotting time ([7]; plasma containing anti-Factor IX antibodies): requires supra-physiological concentrations of the factor
FXI: exogenous coagulation Factor XI, inactive form |  |  |  |  | prolonged clotting time | prolonged clotting time | decreases | slight decrease in clotting time | 
unfractionated heparin |  |  |  |  |  |  |  |  | clot formation in negative control channel (buffer alone) [9]: minimal clot formation; clot formation in FXa-coated channels ([9]; FXa 7.5, 75, 750 ng×10^3/mL): gradient of clot formation dependent on the concentration of FXa in the channel
